Data set [1] relates to Brassica rapa subsp. oleifera. Briefly: Growth inhibition of Brassica rapa subsp. oleifera assessed as total chlorophyll level at 3 x 10^-4 M after 7 days. Format: functional. Further details: scale not given: the % may be the effect or the level left.
Data set [2] relates to Brassica rapa subsp. oleifera. Briefly: Growth inhibition of Brassica rapa subsp. oleifera assessed as root growth at 5 x 10^-5 M after 7 days. Format: functional.
Data set [3] has as its system Brassica rapa subsp. oleifera. The data set can be described thus: Growth inhibition of Brassica rapa subsp. oleifera assessed as total chlorophyll level at 1 x 10^-4 M after 7 days. On the set-up: scale not given: the % may be the effect or the level left. Format: functional.
Data set [4] concerns Brassica rapa subsp. oleifera. The data set can be described thus: Growth inhibition of Brassica rapa subsp. oleifera assessed as chlorophyll a level at 5 x 10^-5 M after 7 days. Further details: scale not given: the % may be the effect or the level left. The data set is classed as functional.
For data set [5], the system named is Brassica rapa subsp. oleifera. The data set can be described thus: Growth inhibition of Brassica rapa subsp. oleifera assessed as chlorophyll b level at 3 x 10^-5 M after 7 days. Format: functional. Further details: scale not given: the % may be the effect or the level left.
Data set [6] deals with Brassica rapa subsp. oleifera. Briefly: Growth inhibition of Brassica rapa subsp. oleifera assessed as chlorophyll b level at 3 x 10^-4 M after 7 days. The data set is classed as functional. Further details: scale not given: the % may be the effect or the level left.
For data set [7], the system named is Brassica rapa subsp. oleifera. The data set can be described thus: Growth inhibition of Brassica rapa subsp. oleifera assessed as total chlorophyll level at 5 x 10^-5 M after 7 days. On the set-up: scale not given: the % may be the effect or the level left. Format: functional.
Data set [8] relates to Brassica rapa subsp. oleifera. The data set can be described thus: Growth inhibition of Brassica rapa subsp. oleifera assessed as chlorophyll b level at 5 x 10^-5 M after 7 days. Format: functional. On the set-up: scale not given: the % may be the effect or the level left.
The test system of data set [9] is Brassica rapa subsp. oleifera. The data set can be described thus: Growth inhibition of Brassica rapa subsp. oleifera assessed as root growth at 3 x 10^-5 M after 7 days. The data set is classed as functional.
In data set [10] the test system is Brassica rapa subsp. oleifera. The data set can be described thus: Growth inhibition of Brassica rapa subsp. oleifera assessed as root growth at 3 x 10^-4 M after 7 days. The data set is classed as functional.
Data set [11] concerns Brassica rapa subsp. oleifera. Briefly: Growth inhibition of Brassica rapa subsp. oleifera assessed as chlorophyll b level at 1 x 10^-4 M after 7 days. The data set is classed as functional. Further details: scale not given: the % may be the effect or the level left.
Data set [12] has as its system Brassica rapa subsp. oleifera. The data set can be described thus: Growth inhibition of Brassica rapa subsp. oleifera assessed as chlorophyll a level at 1 x 10^-4 M after 7 days. On the set-up: scale not given: the % may be the effect or the level left. The data set is classed as functional.
In data set [13] the test system is Brassica rapa subsp. oleifera. The data set can be described thus: Growth inhibition of Brassica rapa subsp. oleifera assessed as chlorophyll a level at 3 x 10^-4 M after 7 days. Format: functional. On the set-up: scale not given: the % may be the effect or the level left.
The nature of data set [14]: Toxicity in ip dosed Mus musculus ddY (mouse) assessed as mortality after 1 to 7 days. Format: organism-based. The settings on record: in vivo.
Data set [15] has as its system Brassica rapa subsp. oleifera. The data set can be described thus: Growth inhibition of Brassica rapa subsp. oleifera assessed as total chlorophyll level at 3 x 10^-5 M after 7 days. On the set-up: scale not given: the % may be the effect or the level left. The data set is classed as functional.
Data set [16] concerns Brassica rapa subsp. oleifera. The data set can be described thus: Growth inhibition of Brassica rapa subsp. oleifera assessed as root growth at 1 x 10^-4 M after 7 days. The data set is classed as functional.
Data set [17] deals with Brassica rapa subsp. oleifera. Briefly: Growth inhibition of Brassica rapa subsp. oleifera assessed as chlorophyll a level at 3 x 10^-5 M after 7 days. The data set is classed as functional. On the set-up: scale not given: the % may be the effect or the level left.

Here are results for 2 compounds from ChEMBL document CHEMBL3044763, “Inhibitory Activities of Rhodanine Derivatives on Plant Growth” (Biosci Biotechnol Biochem, 1996).

Where only a bound is given, the exact number is not on record here.

In the case of `CC(=O)NN1C(=O)CSC1=S` [N-ACETYLAMINORHODANINE], the Activity in [1] came to 13.58%; in [3], 16.24%; in data set [4] it was 11.5%; in data set [5], 6.65%; in data set [6], 4.23%; in data set [7], 17.47%. The Activity in data set [8] turned out to be 5.99%; in data set [10] it was 39.3 mm; in data set [11] it was 5.41%; in data set [12], 10.84%; in data set [13] it was 9.35%; in data set [15], 20.31%. In addition, the Activity in data set [16] is 47.4 mm; in data set [17], 13.68%. Also, the Root length in data set [2] came to 46.5 mm; in [9], 47 mm. For the same compound, the median lethal dose (LD50) in [14] is more than 1000 mg/kg.
For the compound `O=C(NN1C(=O)CSC1=S)c1ccccc1` [N-BENZOYLAMINORHODANINE], the Activity came out at 9.62% in data set [1]; 17.6% in data set [3]; 13.43% in [4]; 6.82% in data set [5]; 3.1% in [6]; 19.54% in data set [7]. The Activity in data set [8] is 6.12%; in [10], 19.2 mm; in data set [11], 6.15%; in data set [12] it was 11.46%; in [13], 6.53%; in data set [15], 21.24%. The Activity stood at 33.8 mm in [16] and 14.44% in data set [17]. Also, the Root length worked out at 73.3 mm in [2] and 79.6 mm in data set [9]. Besides, the LD50 in data set [14] is more than 1000 mg/kg.

A word on the LD50: it is the dose at which mortality reaches 50%.
